Measured values reported in patent publication US9993492B2, “Lysophospholipids and lysophospholipid analogues against honeybee brood diseases” (University of Graz, priority 2013, dated 2018).
Read-outs that look alike come from different tables or passages of the source.

How the values were obtained:
[1] = system: spores of Paenibacillus larvae; assay: Spore assay in BHI liquid medium with plating for CFU; type: cell-based; details: lowest investigated dose (5 ppm); 114.6±28.4 spores per vial; 4 and 6 days
Protocol: A stock solution containing spores at a known concentration is used to inoculate c. 100 spores/mL medium. This assay is carried out in 20 mL cultivation tubes containing 1.0 mL of BHI (brain heart infusion) liquid medium. To this medium containing c. […] spores, test compounds are added at different concentrations (e.g., 2, 5 and 10 ppm), together with positive control (penicillin G at 5 ppm) and blank control.
To verify inoculation with c. 100 spores/mL, tubes containing BHI+spores are plated out immediately on agar plates to assess the number of colony forming units (CFU) after 6 days of incubation at 34.5° C.
For the control of viability of the spores, the turbidity (due to germination of spores and formation of vegetative forms) of tubes containing BHI+spores is evaluated on day 4.
For the test probes, bacterial growth is evaluated on day 4 and 6. For those tubes which are negative for bacterial growth, the whole medium (c. 1 mL) is plated onto agar plates and evaluated for CFUs after 2 and 6 days of incubation. CFUs visible after two days result from vegetative forms, while CFUs appearing after […] stem from spores.
The results of these tests allow identifying whether the tested compounds have an effect on spore germination in liquid medium and the viability of the spores as assessed by their germination on agar plates. […]

[2] = system: Paenibacillus larvae (Eric II test strain); assay: Inhibition zone test on Columbia agar; type: cell-based; details: Paenibacillus larvae, 24 h, 34.5° C.
Protocol: As test organisms, several different strains of Paenibacillus larvae were used.
Overnight cultures of the vegetative forms of bacteria were prepared in BHI (brain heart infusion) liquid medium.
For the inhibition zone test, 500 μL of overnight culture were added to 15-20 mL of Columbia agar, mixed and poured onto a petri dish. After the agar solidified, either punched wholes are filled with different amounts of test compounds or test compounds are pipetted on paper discs (5 mm Ø). The plate is then incubated for 24 h (34.5° C.) and zones of inhibition are measured and given in mm. Lactic acid and penicillin G were used as positive controls.
E II—Eric II (test strain of Pl)

Melissococcus plutonius = assay: Antimicrobial assay in liquid Basal Medium against Melissococcus plutonius (MIC); type: cell-based; details: Melissococcus plutonius
Protocol: M. pl. was cultured in liquid Basal Medium (BM) for 4 days at 35° C. and from here serial dilutions were carried out to estimate CFU/ml by plating onto BM agar plates. 5 days later CFU were count and concentration was estimated to be 3.46*10^6 CFU/ml. For the antimicrobial assay, an inoculum of 50 μl of the liquid culture is added to 1 mL of BM liquid medium. A set of different substances were tested in different concentrations (2, 5 and 10 ppm) in order to find out their inhibitory effect against M. pl growth. For substances tested, concentration applied and results see table 1.2. Three replicates per substance were included in the experiment. 5 days after the experiment was started OE (optical extinction) was measured at 600 nm.

honeybee larvae = type: in vivo; details: LPC 10 μg/larva added on day 1, Nlarvae 192
Protocol: First instar larvae were transferred into plastic queen cups and fed the following diets: On the first day 10 μL of diet containing 6% glucose, 6% fructose, 1% yeast extract and 50% royal jelly were fed. Test substances (1-O-oleoyl-sn-glycero-3-phosphocholine (oleoyl-LPC), stearic acid, lysophosphatidylinositol and linoleic acid) were added to the first diet in amounts of 0.5 to 10 μg/larvae. For infection with spores of Paenibacillus larvae, larvae were grafted into 5 μL of diet containing test substances and subsequently 5 μL of diet with about 50 added Pl spores were given. Larvae were not fed on the second day to assure the consumption of the given diet. On the third day 20 μL of diet containing 7.5% glucose, 7.5% fructose, 1.5% yeast extract and 50% royal jelly were fed. Amounts of 30, 40 and 60 μL of diet composed of 9% glucose, 9% fructose, 2% yeast extract and 50% royal jelly were fed on the 4th, 5th and 6th day (method modified after Aupinel et al. [Aupinel et al. 2005. Bull Insectol 58:107-111]. Larvae were incubated at 34.5° C. and 95% relative humidity which was reduced to 80% on day 7. The mortality was checked daily for the first 7 days and when individuals emerged from queen cups at day 18 after the transfer into cups. To reduce the time for sporulation of Pl in the lab for security reasons, infection tests with Pl spores were stopped at day 7 with some experiments extend to day 12.
Larvae were fed according to a slightly modified rearing method of Aupinel et al., (2005). Larvae were fed for 6 days with different amounts of diets which always contained 50% of an aqueous solution (A, B, C) and 50% royal jelly (w/w). The solutions consisted of yeast extract (A=2%, B=3%, C=4%), glucose and fructose (A=12%, B=15%, C=18% each). 50 g portions of royal jelly (purchased from the Styrian school of beekeepers) were freeze stored at −20° C. Once a day all components of the needed diet were mixed freshly, warmed and fed to the larvae with a micro-pipette. On day 1 and 2 each larva was fed with 10 μL of diet A, on day three with 20 μL of diet B, on day four (30 μL), five (40 μL) and six (50 μL) with diet C. This way, each larva was supported with a total amount of 160 μL of food. The test compounds (see Table 4) were added each at the respective concentration on day 1, i.e. stearic acid (10 μg/larva), lysophosphatidylinositol (5 μg/larva), linoleic acid (12 μg/larva) and oleyol-LPC (10 μg/larva). Each larva was checked for its state of health under the binocular before feeding. A larva was defined healthy when movements of spiracles could be observed and it was shiny and plump. Cups with dead larvae were removed from the plate to prevent infections. To avoid microbial contamination, feeding took place under a laminar flow. Larvae were incubated at 34.5° C. and 90% RH. The mortality rates of the larvae are given below in table 4.1.

SMILES: CCCCCCCC/C=C\CCCCCCCC(=O)OC[C@@H](O)COP(=O)([O-])OCC[N+](C)(C)C [1-O-oleoyl-sn-glycero-3-phosphocholine]
- killing of vegetative forms upon germination of spores [1]: all vegetative forms are killed
- zone of inhibition at 5 µg/disc ([2]; amount 5 μg): 3.5 mm
- zone of inhibition at 10 µg/disc ([2]; amount 10 μg): 5 mm
- MIC (Melissococcus plutonius; 120 h, M. pl. in BM liquid medium, OE at 600 nm after 5 days, read-out: MIC): > 3.8 µM
- MIC (Melissococcus plutonius; 120 h, M. pl. in BM liquid medium, OE at 600 nm after 5 days, read-out: MIC (ppm)): 2 µg/mL
- MIC (Melissococcus plutonius; read-out: in vitro M. pl. inhibitory activity, MIC): 2.5 µg/mL
- Ndead larvae day 1 (honeybee larvae): 0
- Ndead larvae day 2 (honeybee larvae): 7
- Ndead larvae day 3 (honeybee larvae): 1
- Ndead larvae day 4 (honeybee larvae): 1
- Ndead larvae day 5 (honeybee larvae): 0
- Ndead larvae day 6 (honeybee larvae): 0
- Ndead larvae day 7 (honeybee larvae): 4
- Ndead larvae total (honeybee larvae; days 1-7): 13
